According to patent publication US8426406B2, “Glucocorticoid receptor agonist comprising 2,2,4-trimethyl-6-phenyl-1,2-dihydroquinoline derivatives having substituted oxy group” (Santen Pharmaceutical Co., Ltd., priority 2008, dated 2013):

Assays:
[1] = test system: allergic conjunctivitis model in mice; assay: Inhibitory effect on the vascular hyper-permeability in allergic conjunctivitis model; assay type: in vivo; details: Mus musculus, 1% (W/V) test compound suspension instilled to the right eye three times before ovalbumin instillation, dye leakage vs vehicle, mean of 5-6 eyes, read-out: The inhibition ratio of the vascular hyper-permeability (%)
Method: In order to evaluate anti-allergic effect, inhibitory effect on the vascular hyper-permeability in allergic conjunctivitis model in mice was examined. This effect was calculated based on dye leakages of vehicle-treated group (control group) and test compound-treated group.
By adding 0.5% polysorbate 80/saline to the test compound, a 1% (W/V) test compound suspension was prepared.
1) Ovalbumin absorbed on aluminum hydroxide gel was dissolved in saline (20 μg ovalbumin/mL), and male BALE/c mice, 6 weeks old, were actively sensitized to the antigen by intraperitoneal injections of 500 μL of it.
2) On the 6th day from sensitization, sensitized mice were boosted by additional intraperitoneal injections of 500 μL ovalbumin absorbed on aluminum hydroxide gel (20 μg ovalbumin/mL).
3) On the 11th day, 12th day, 13th day, 14th day and 15th day from the first sensitization, allergic conjunctivitis were induced by installations to the right eyes of the mice of […] of 50% glycerol solution containing 15% (W/V) ovalbumin.
4) […] of test compound suspension per eye was instilled to the right eye of the above mice 15 min, 1 hr and 3 hrs before ovalbumin instillation (three times) on the 15th day from sensitization. In vehicle-treated group (control group), the mice were instilled with 0.5% polysorbate 80/saline in substitution for test compound suspension.
5) Just before ovalbumin instillation on the 15th day from sensitization, all animals received a tail intravenous injection of 0.1% Evans blue dye. The right periocular tissues of the mice, which were the leaked parts of dye, were collected 30 min after ovalbumin instillation. The dye was extracted from the tissues with the dye extraction liquid. Then the absorbance of the dye extract was measured. The dye leakage was calculated from the absorbance value, and the inhibition ratio of the vascular hyper-permeability of test compound-treated group was calculated according to calculation equation 1. The inhibition ratio of the vascular hyper-permeability of test compound-treated group(%)=(1−Ax/Ao)×100 (Calculation Equation 1) Ao: Dye leakage in vehicle-treated group (control group) Ax: Dye leakage in test compound-treated group (Test Results and Discussion)

[2] = test system: IL-6 production induced by lipopolysaccharide (LPS) in human corneal epithelial cells; assay: Evaluation test for GR agonist activity: inhibition of LPS-induced IL-6 production in human corneal epithelial cells (HCE-T); assay type: cell-based; details: Corneal epithelial cell, 10 μL of 100 μM test compound solution per well, 4 hours incubation, efficacy relative to DEX
How it was run: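 SV40-immortalized HCE-T cells were treated with test compound (100 μM solution, stock before dilution into well) plus LPS (1 μg/mL solution, likewise pre-dilution) for 4 hours in 10% FBS-DMEM/F12. IL-6 in supernatants was measured by HTRF. Inhibition was calculated relative to LPS-plus-DMSO and no-LPS controls, and efficacy was expressed as % of DEX inhibition.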

[3] = test system: choroidal neovascularization (CNV) model in rats; assay: Evaluation test for inhibitory effect of choroidal neovascularization (laser induced CNV model in rats); assay type: in vivo; details: Brown Norway rats, 1% (w/v) suspension eye drops four times a day or 20 mg/mL subconjunctival injection (route not given), vs vehicle, mean of 7-8 eyes in 4 rats
Method: The choroidal neovascularization (CNV) model in rats is known as one of the popular methods for evaluating the CNV inhibitory effect of drugs. This method is reported in Graefe's Arch. Cli. Exp. Ophthalmol., 235, 313-319 (1997). According to this method, the CNV examinations were performed to evaluate the CNV inhibitory effect of test compounds by comparing the incidence rates of CNV in vehicle group (control group) with test compound-treated groups.
For eye drop administration, a 1% (w/v) test compound suspension was prepared by adding 0.5% polysorbate 80/saline to the test compound. For subconjunctival injection, a 20 mg/mL test compound suspension was prepared by adding 0.5% hydrogenated castor oil/saline to the test compound.
1) Brown Norway male rats (7-8 weeks, 140-240 g) were anesthetized with intramuscular injection (1 mL/kg) of the mixed solution (5% ketamine HCl: 2% xylazine HCl=7:1).
2) After mydriasis using tropicamide phenylephrine hydrochloride eye drops (trade name Mydrin P), laser photocoagulation of bruch's membrane in rats was performed with krypton laser photocoagulation machine. Laser irradiation was performed at 8-9 points per eye avoiding thick retinal blood vessels in ocular fundus and focusing on the depth of retina. The conditions were 100 μm spot size, 100 mW power, 0.1 second duration.
3) After laser photocoagulation, photographs of ocular fundus were taken and the laser photocoagulation (laser irradiation) points were confirmed.
1) In case of eye drops administration, a test compound suspension was administrated four times a day from laser irradiation day (the 1st day) to the 8th day. In case of subconjunctival injection, a 50 μL test compound suspension was injected into conjunctivae just after laser irradiation.
2) In vehicle group (control group), 0.5% polysorbate 80/saline or 0.5% hydrogenated castor oil/saline was used instead of a test compound suspension. And the test was performed according to the method 1).
1) 7 days after laser irradiation, 0.1 mL of 10% fluorescein was injected into rat tail vein and fluorescein angiography was performed.
2) When the fluorescent leakage was not detected in the fluorescent angiography, the spot was judged to be a negative spot. When the fluorescent leakage was detected, the spot was judged to be a positive spot. When the fluorescent leakage was detected as a little leakage, two spots were counted as one positive spot.
3) The neovascular incidence rate was calculated according to the equation 1. According to the equation 2, the ratio of neovascular incidence rate in test compound group to vehicle group was calculated. Neovascular incidence rate(%)=(Positive spots/all spots)×100 (Equation 1) Angiogenic inhibition ratio in test compound group(%)=(1−Ax/Ao)×100 (Equation 2)
Ao: Neovascular incidence rate in vehicle group (control group)
Ax: Neovascular incidence rate in test compound group

Row | Structure (SMILES) | inhibition in vivo at 10000 µg/mL [1] | Emax [2] | Angiogenic inhibition ratio (%) [3]
1 | COc1cc(OC(=O)c2ccccc2Cl)ccc1-c1ccc2c(c1COc1cc(F)ccc1C)C(C)=CC(C)(C)N2 [Compound 1-7, 6-[4-(2-Chlorobenzoyloxy)-2-methoxyphenyl]-5-(5-fluoro-2-methylphenoxymethyl)-2,2,4-trimethyl-1,2-dihydroquinoline] | 28% | 78% | –
2 | COc1cc(OC(=O)N2CCOCC2)ccc1-c1ccc2c(c1COc1cc(F)ccc1C)C(C)=CC(C)(C)N2 [Compound 6-31, 5-(5-Fluoro-2-methylphenoxymethyl)-6-[2-methoxy-4-(morpholin-4-ylcarbonyloxy)phenyl]-2,2,4-trimethyl-1,2-dihydroquinoline] | – | 86% | 45%
3 | COc1ccc(OC(=O)c2ccco2)cc1-c1ccc2c(c1COc1cc(F)ccc1C)C(C)=CC(C)(C)N2 [Compound 1-17, 5-(5-Fluoro-2-methylphenoxymethyl)-6-[5-(furan-2-ylcarbonyloxy)-2-methoxyphenyl]-2,2,4-trimethyl-1,2-dihydroquinoline] | – | 84% | 35%
4 | COc1cc(OC(=O)C(C)C)ccc1-c1ccc2c(c1COc1cc(F)ccc1C)C(C)=CC(C)(C)N2 [Compound 1-14, 5-(5-Fluoro-2-methylphenoxymethyl)-6-(4-isobutyryloxy-2-methoxyphenyl)-2,2,4-trimethyl-1,2-dihydroquinoline] | – | 79% | 46%
5 | COc1ccccc1NCc1c(-c2ccc(OC(=O)c3cccnc3)cc2OC)ccc2c1C(C)=CC(C)(C)N2 [Compound 1-97, 5-(2-Methoxyphenylaminomethyl)-6-[2-methoxy-4-(pyridin-3-ylcarbonyloxy)phenyl]-2,2,4-trimethyl-1,2-dihydroquinoline] | 21% | 81% | –
6 | COc1ccc([N+](=O)[O-])cc1OCc1c(-c2ccc(OS(=O)(=O)C3CC3)cc2OC)ccc2c1C(C)=CC(C)(C)N2 [Compound 4-8, 6-(4-Cyclopropylsulfonyloxy-2-methoxyphenyl)-5-(2-methoxy-5-nitrophenoxymethyl)-2,2,4-trimethyl-1,2-dihydroquinoline] | – | 78% | 26%
7 | COc1cc(OC(=O)c2cccnc2)ccc1-c1ccc2c(c1CNc1cc(F)ccc1C)C(C)=CC(C)(C)N2 [Compound 1-105, 5-(5-Fluoro-2-methylphenylaminomethyl)-6-[2-methoxy-4-(pyridin-3-ylcarbonyloxy)phenyl]-2,2,4-trimethyl-1,2-dihydroquinoline] | 18% | 97% | –
8 | COc1cc(OC(=O)c2ccccc2Cl)ccc1-c1ccc2c(c1COC(=O)c1ccc(C)s1)C(C)=CC(C)(C)N2 [Compound 1-139, 6-[4-(2-Chlorobenzoyloxy)-2-methoxyphenyl]-5-(5-methylthiophen-2-ylcarbonyloxymethyl)-2,2,4-trimethyl-1,2-dihydroquinoline] | 15% | 104% | –
9 | COc1ccc(OC(=O)c2cccnc2)cc1-c1ccc2c(c1COc1cc(F)ccc1C)C(C)=CC(C)(C)N2 [Compound 1-19, 5-(5-Fluoro-2-methylphenoxymethyl)-6-[2-methoxy-5-(pyridin-3-ylcarbonyloxy)phenyl]-2,2,4-trimethyl-1,2-dihydroquinoline] | – | 78% | 30%
10 | COc1cc(OC(=O)c2ccncc2)ccc1-c1ccc2c(c1COc1cc(F)ccc1C)C(C)=CC(C)(C)N2 [Compound 1-33, 5-(5-Fluoro-2-methylphenoxymethyl)-6-[2-methoxy-4-(pyridin-4-ylcarbonyloxy)phenyl]-2,2,4-trimethyl-1,2-dihydroquinoline] | – | 82% | 29%
11 | COc1cc(OS(=O)(=O)C(C)C)ccc1-c1ccc2c(c1COc1cc(F)ccc1C)C(C)=CC(C)(C)N2 [Compound 4-5, 5-(5-Fluoro-2-methylphenoxymethyl)-6-(4-isopropylsulfonyloxy-2-methoxyphenyl)-2,2,4-trimethyl-1,2-dihydroquinoline] | – | 90% | 38%
12 | COc1ccccc1NCc1c(-c2ccc(OC(=O)N3CCOCC3)cc2OC)ccc2c1C(C)=CC(C)(C)N2 [Compound 6-35, 6-[2-Methoxy-4-(morpholin-4-ylcarbonyloxy)phenyl]-5-(2-methoxyphenylaminomethyl)-2,2,4-trimethyl-1,2-dihydroquinoline] | – | 87% | 26%
13 | COc1cc(OC(=O)c2ccoc2)ccc1-c1ccc2c(c1COc1cc(F)ccc1C)C(C)=CC(C)(C)N2 [Compound 1-25, 5-(5-Fluoro-2-methylphenoxymethyl)-6-[4-(furan-3-ylcarbonyloxy)-2-methoxyphenyl]-2,2,4-trimethyl-1,2-dihydroquinoline] | – | 83% | 50%
14 | COc1cc(OC(=O)N(C)C)ccc1-c1ccc2c(c1COc1cc(F)ccc1C)C(C)=CC(C)(C)N2 [Compound 6-3, 6-(4-Dimethylaminocarbonyloxy-2-methoxyphenyl)-5-(5-fluoro-2-methylphenoxymethyl)-2,2,4-trimethyl-1,2-dihydroquinoline] | – | 83% | 38%
15 | CCCC(=O)Oc1ccc(-c2ccc3c(c2COc2cc(F)ccc2C)C(C)=CC(C)(C)N3)c(OC)c1 [Compound 1-9, 6-(4-Butyryloxy-2-methoxyphenyl)-5-(5-fluoro-2-methylphenoxymethyl)-2,2,4-trimethyl-1,2-dihydroquinoline] | – | 79% | 31%
16 | COc1cc(OC(=O)c2cccnc2C)ccc1-c1ccc2c(c1COc1cc(F)ccc1C)C(C)=CC(C)(C)N2 [Compound 1-49, 5-(5-Fluoro-2-methylphenoxymethyl)-6-[2-methoxy-4-(2-methylpyridin-3-ylcarbonyloxy)phenyl]-2,2,4-trimethyl-1,2-dihydroquinoline] | – | 96% | 23%
17 | COc1cc(OC(=O)c2ccncc2)ccc1-c1ccc2c(c1CNc1cc(F)ccc1C)C(C)=CC(C)(C)N2 [Compound 1-119, 5-(5-Fluoro-2-methylphenylaminomethyl)-6-[2-methoxy-4-(pyridin-4-ylcarbonyloxy)phenyl]-2,2,4-trimethyl-1,2-dihydroquinoline] | – | 75% | –
